Assay [1] can be described thus: Agonist activity at rat GPR81 transfected in T-REX-CHO cells by cAMP assay. In kind it is cell-based. For orientation: Cyclic AMP is a second messenger, typically raised through Gs and lowered through Gi signalling.
For assay [2], the target named is Hydroxycarboxylic acid receptor 2 (Rattus norvegicus, UniProt Q80Z39). Put plainly: Agonist activity at rat GPR109A transfected in T-REX-CHO cells by cAMP assay. Type of assay: cell-based.
In assay [3] the test system is HT-1080. The assay is described as follows: Cytotoxicity against human HT-1080 cells assessed as reduction in cell growth by measuring lethal concentration for 72 hrs by MTT assay. Type of assay: functional. In general terms: Tetrazolium assays rely on reduction of a dye to a coloured formazan, in cell work by metabolically active cells.
In assay [4] the test system is MG-22A. Put plainly: Cytotoxicity against mouse MG-22A cells assessed as reduction in cell growth by measuring lethal concentration for 72 hrs by MTT assay. In kind it is functional.
For assay [5], the system named is Staphylococcus epidermidis. The assay is described as follows: Antibacterial activity against Staphylococcus epidermidis assessed as inhibition of bacterial growth incubated for 24 hrs by nutrient agar plate method. In kind it is functional.
The subject of assay [6] is HT-1080. The assay is described as follows: Cytotoxicity against human HT-1080 cells assessed as reduction in cell growth measured for 72 hrs by crystal violet staining based analysis. Type of assay: functional. As to conditions: HT-1080, 72 h.
The test system of assay [7] is MG-22A. The assay is described as follows: Cytotoxicity against mouse MG-22A cells assessed as reduction in cell growth measured for 72 hrs by crystal violet staining based analysis. Type of assay: functional.
Assay [8] has as its system Salmonella typhimurium. The assay is described as follows: Antibacterial activity against Salmonella enterica subsp. enterica serovar Typhimurium PTCC 1609 assessed as reduction in cell growth incubated for 24 hrs by Mueller-Hinton Broth micro dilution method. In kind it is functional.
The subject of assay [9] is Pseudomonas aeruginosa. Put plainly: Antibacterial activity against Pseudomonas aeruginosa PTCC 1074 assessed as reduction in cell growth incubated for 24 hrs by Mueller-Hinton Broth micro dilution method. Type of assay: functional.
For assay [10], the system named is Staphylococcus aureus. Put plainly: Antibacterial activity against Staphylococcus aureus PTCC 1112 assessed as reduction in cell growth incubated for 24 hrs by Mueller-Hinton Broth micro dilution method. Type of assay: functional.
The subject of assay [11] is Escherichia coli. The assay is described as follows: Antibacterial activity against Escherichia coli PTCC 1330 assessed as reduction in cell growth incubated for 24 hrs by Mueller-Hinton Broth micro dilution method. In kind it is functional.
Assay [12] deals with Panel NCI-60 (60 carcinoma cell lines). Put plainly: Cytotoxicity against human Panel NCI-60 (60 carcinoma cell lines) assessed as reduction in cell growth incubated for 72 hrs by CCK-8 assay. Type of assay: functional, cell-based.

Molecules are shown by their SMILES. Values after ≈ are worked out from the molar mass of the structure shown.

Chain of Hydroxycarboxylic acid receptor 2 (Q80Z39 whole entry): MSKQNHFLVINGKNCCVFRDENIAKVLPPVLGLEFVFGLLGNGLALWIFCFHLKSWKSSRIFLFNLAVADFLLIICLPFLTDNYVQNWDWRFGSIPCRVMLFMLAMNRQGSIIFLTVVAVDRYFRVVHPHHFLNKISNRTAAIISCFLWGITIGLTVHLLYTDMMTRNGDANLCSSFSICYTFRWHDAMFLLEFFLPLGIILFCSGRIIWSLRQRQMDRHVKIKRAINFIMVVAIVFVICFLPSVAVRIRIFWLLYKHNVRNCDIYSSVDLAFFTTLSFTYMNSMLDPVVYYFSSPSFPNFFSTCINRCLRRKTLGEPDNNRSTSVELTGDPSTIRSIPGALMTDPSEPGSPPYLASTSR

In the case of `CCOc1cc(Cl)c(C(=O)NC(=O)Nc2nc3c(s2)CCCC3)cc1N1CCOCC1`, the EC50 (usually the concentration at which the effect is half-maximal) in assay [1] stood at 240 nM.

With `CCOc1cc(Cl)c(C(=O)NC(=O)Nc2nc3c(s2)CCCC3)cc1-n1cccn1`, the figures for the EC50 in assay [1] and in [2] were 18 nM and 250 nM, respectively.

On to `CCOc1cc(Cl)c(C(=O)NC(=O)Nc2nc3c(s2)C[Si](c2ccccc2)(c2ccc(OC)cc2)CC3)cc1-n1cccn1` (stereo not given), for which the EC50 in assay [1] stood at 210 nM; in [2], 470 nM.

With `CCOc1cc(Cl)c(C(=O)NC(=O)Nc2nc3c(s2)C[Si](C)(c2ccc(OC)cc2)CC3)cc1-n1cccn1` (stereo not given), the EC50 amounted to 210 nM in assay [1] and 470 nM in assay [2].

Turning to `CCCCCCC[Si](C)(C)OCC[N+]1(C)CCc2ccccc2C1.[I-]` (stereo not given), the LC50 (in general, the concentration lethal to half of the exposed cells or organisms) in [3] is < 1 µg/mL; in assay [4] it was 1 µg/mL.

For the molecule `CC[Si](CC)(CC)c1cccc(CN(Cc2ccccn2)Cc2ccccn2)c1O`, the minimum inhibitory concentration (MIC) (commonly the lowest concentration found to suppress growth) in assay [5] was found to be 1.2 µg/mL (≈ 2.86 µM).

Consider `CCC[Si]1(CCC)CCc2nc(NC(=O)NC(=O)c3cc(N4CCOCC4)c(OCC)cc3Cl)sc2C1`, for which the EC50 in assay [1] is 1000 nM; in assay [2], 1200 nM.

As to `CC[Si](CC)(CC)c1ccc([Si](C)(CCCN2CCCCC2)c2ccc([Si](CC)(CC)CC)o2)o1`, the IC50 in [6] and in assay [7] was 3 µg/mL (≈ 5.64 µM) throughout.

As to `CC[Si](CC)(CC)c1ccc([Si](C)(CCCN2CCN(C)CC2)c2ccc([Si](CC)(CC)CC)o2)o1`, the IC50 in assay [6] and in assay [7] was 3 µg/mL (≈ 5.48 µM) throughout.

For `CCOc1cc(Cl)c(C(=O)NC(=O)Nc2nc3c(s2)C[Si](C)(c2c(OC)cccc2OC)CC3)cc1-n1cccn1` (stereo not given), the EC50 stood at 210 nM in assay [1] and 470 nM in assay [2].

For the molecule `C[Si](C)(C)C(S)(C(=S)CCCCn1nnc(Sc2ccccc2)n1)[Si](C)(C)C`, the MIC in assay [8], in [9], in assay [10] and in assay [11] was 3.91 µg/mL (≈ 8.34 µM) throughout.

Take `CC[Si](CC)(CC)OCC[N+]1(C)CCc2ccccc2C1.[I-]` (stereo not given): the values for the LC50 in assay [3] and in assay [4] were < 1 µg/mL and 2 µg/mL, respectively.

With `CCC[Si]1(c2ccc(OC)cc2)CCc2nc(NC(=O)NC(=O)c3cc(-n4cccn4)c(OCC)cc3Cl)sc2C1` (stereo not given), the EC50 in assay [1] was found to be 210 nM; in assay [2], 470 nM.

Take `CCOc1cc(Cl)c(C(=O)NC(=O)Nc2nc3c(s2)C[Si](c2ccccc2)(c2c(OC)cccc2OC)CC3)cc1-n1cccn1` (stereo not given): the EC50 in [1] was 210 nM; in [2], 470 nM.

For `CC1(C)CC(NC(=O)[C@H](Cc2ccc(-c3ccccc3)cc2)NC(=O)c2ccc(OCC[Si](C)(C)C)cc2)CC(C)(C)N1`, in [12], the IC50 (in general, the concentration needed to halve the response being measured) came out at 1500 nM.

For the molecule `CCC[Si]1(c2c(OC)cccc2OC)CCc2nc(NC(=O)NC(=O)c3cc(-n4cccn4)c(OCC)cc3Cl)sc2C1` (stereo not given), the concentration giving a half-maximal response (EC50) stood at 210 nM in assay [1] and 470 nM in assay [2].

`CCCCCCCC[Si](C)(C)OCC[N+]1(C)CCc2ccccc2C1.[I-]` (stereo not given): the LC50 in assay [3] was < 1 µg/mL; in assay [4], 1 µg/mL.

`CN1CCN(CCC[Si](C)(c2ccc([Si](C)(C)C)o2)c2ccc([Si](C)(C)C)o2)CC1`: the IC50 in assay [6] and in assay [7] was 3 µg/mL (≈ 6.48 µM) each time.

Consider `CCCCCCCCCCC[Si](C)(C)OCC[N+]1(C)CCc2ccccc2C1.[I-]` (stereo not given), for which the LC50 was < 1 µg/mL in assay [3] and 1 µg/mL in assay [4].

Take `CCCCCCCCCC[Si](C)(C)OCC[N+]1(C)CCc2ccccc2C1.[I-]` (stereo not given): the median lethal concentration (LC50) in assay [3] was < 1 µg/mL; in assay [4] it was 1 µg/mL.

For the molecule `CC[Si](C)(CC)OCC[N+]1(C)CCc2ccccc2C1.[I-]` (stereo not given), the LC50 in [3] is < 1 µg/mL; in assay [4] it was 2 µg/mL.

For `CCCC[Si](C)(C)Oc1ccc(C(=O)N[C@@H](Cc2ccc(-c3ccccc3)cc2)C(=O)NC2CC(C)(C)NC(C)(C)C2)cc1`, the IC50 in assay [12] came to 1500 nM.

In the case of `CCOc1cc(Cl)c(C(=O)NC(=O)Nc2nc3c(s2)C[Si](C)(C)CC3)cc1N1CCOCC1`, the 50% effective concentration (EC50) in [1] was 1000 nM; in [2], 1200 nM.

Consider `CC(C)(C)[Si](c1ccccc1)(c1ccccc1)c1cccc(CN(Cc2ccccn2)Cc2ccccn2)c1O`, for which the MIC in assay [5] worked out at 1.2 µg/mL (≈ 2.21 µM).

Take `C[Si](C)(C)C(S)(C(=S)CCCCn1nnc(SC(=O)c2ccccc2)n1)[Si](C)(C)C`: the MIC in assay [8], in assay [9], in assay [10] and in assay [11] was 3.91 µg/mL (≈ 7.87 µM) each time.

As to `CCCCCSc1nnn(CCCCC(=S)C(S)([Si](C)(C)C)[Si](C)(C)C)n1`, the MIC in assay [8], in [9], in assay [10] and in assay [11] was 3.91 µg/mL (≈ 8.45 µM) throughout.

As to `C[Si](C)(C)c1ccc([Si](C)(CCCN2CCCCC2)c2ccc([Si](C)(C)C)o2)o1`, the IC50 in [6] and in assay [7] was 3 µg/mL (≈ 6.7 µM) each time.

On to `CCN(CC)CCC[Si](C)(c1ccc([Si](C)(C)C)o1)c1ccc([Si](C)(C)C)o1`, for which the IC50 in assay [6] and in assay [7] was 3 µg/mL (≈ 6.88 µM) in each case.

For the molecule `CC(C)(C)[Si](C)(C)c1cccc(CN(Cc2ccccn2)Cc2ccccn2)c1O`, the MIC in assay [5] is 1.2 µg/mL (≈ 2.86 µM).

Take `C[Si](CCCN1CCOCC1)(c1ccco1)c1ccco1`: the IC50 turned out to be 100 µg/mL (≈ 327 µM) in assay [6] and 38 µg/mL (≈ 124 µM) in [7].

Regarding `C[Si](C)(C)C(S)(C(=S)CCCCn1nnc(SCc2ccccc2)n1)[Si](C)(C)C`, the minimal inhibitory concentration (MIC) in assay [8], in assay [9], in assay [10] and in assay [11] was 3.91 µg/mL (≈ 8.1 µM) each time.

On to `CC(C)[Si](c1cccc(CN(Cc2ccccn2)Cc2ccccn2)c1O)(C(C)C)C(C)C`, for which, in assay [5], the MIC amounted to 1.2 µg/mL (≈ 2.6 µM).

Take `CCC[Si](C)(C)Oc1ccc(C(=O)N[C@@H](Cc2ccc(OCc3c(Cl)cccc3Cl)cc2)C(=O)NC2CC(C)(C)NC(C)(C)C2)cc1`: the 50% inhibitory concentration (IC50) in assay [12] came out at 1500 nM.

Turning to `CCCCCC[Si](C)(CCCCCC)OCC[N+]1(C)CCc2ccccc2C1.[I-]` (stereo not given), the figures for the LC50 in assay [3] and in assay [4] were < 1 µg/mL and 1 µg/mL, respectively.

Take `CC1(C)CC(NC(=O)[C@H](Cc2ccc(OCc3c(Cl)cccc3Cl)cc2)NC(=O)c2ccc(OCC[Si](C)(C)C)cc2)CC(C)(C)N1`: in assay [12], the IC50 was found to be 1500 nM.

Turning to `C[Si](C)(C)c1ccc([Si](C)(CCCN2CCOCC2)c2ccc([Si](C)(C)C)o2)o1`, the IC50 in [6] and in [7] was 3 µg/mL (≈ 6.67 µM) in each case.

Consider `CCCCSc1nnn(CCCCC(=S)C(S)([Si](C)(C)C)[Si](C)(C)C)n1`, for which the MIC in assay [8], in assay [9], in assay [10] and in [11] was 3.91 µg/mL (≈ 8.71 µM) throughout.

As to `CCCCCCCCCCCCCCCC[Si](C)(C)OCC[N+]1(C)CCc2ccccc2C1.[I-]` (stereo not given), the LC50 in assay [3] was < 1 µg/mL; in assay [4], 1 µg/mL.

Regarding `CCCC[Si](CC)(CCCC)OCC[N+]1(C)CCc2ccccc2C1.[I-]` (stereo not given), the LC50 was < 1 µg/mL in assay [3] and 2 µg/mL in [4].

`CCN(CC)CCC[Si](C)(c1ccc([Si](CC)(CC)CC)o1)c1ccc([Si](CC)(CC)CC)o1`: the IC50 in assay [6] and in [7] was 3 µg/mL (≈ 5.77 µM) each time.

`C[Si](C)(C)c1cccc(CN(Cc2ccccn2)Cc2ccccn2)c1O`: in assay [5], the minimal inhibitory concentration (MIC) is 1.2 µg/mL (≈ 3.18 µM).

Regarding `CCOc1cc(Cl)c(C(=O)NC(=O)Nc2nc3c(s2)C[Si](c2ccccc2)(c2ccccc2)CC3)cc1N1CCOCC1`, the figures for the EC50 in [1] and in [2] were 1000 nM and 1200 nM, respectively.

With `CCOP(=O)(OCC)C(NC(=O)[C@H](Cc1ccc(-c2ccccc2)cc1)NC(=O)c1ccc(OCC[Si](C)(C)C)cc1)P(=O)(OCC)OCC`, the IC50 in assay [12] stood at 1500 nM.

(Values after ChEMBL document CHEMBL6177939, “The role of silicon in drug discovery: a review” (RSC Med Chem, 2024).)
